The subject of assay [1] is rat streptozotocin diabetes. As to the kind of experiment: Effect on rat streptozotocin diabetes, blood lipids. It is filed as in vivo. To be noted: STZ-diabetic male SD rats, 100 mg/2 ml/kg i.p. once a day, mean, n = 4-7; for Total Cholesterol Week 4: week 4, tail blood; for Total Cholesterol Week 8: week 8, tail blood; for Total Cholesterol Week 10: week 10, abdominal aorta blood. How it is done:
Using male 4-week-old SD rats, streptozotocin (STZ), 70 mg/kg, was injected into the tail vein to construct a diabetes model. As test substances, DCE-GS, DCE-Et-GS and DCE-Et-GS-iPr, each dissolved in physiological saline, were respectively administered intraperitoneally in doses of 100 mg/2 ml/kg once a day. The control group received physiological saline, 2 ml/kg, i.p. The normal group was also provided.
At weeks 4 and 8 of treatment, the blood was collected from the tail and the total cholesterol was determined. Furthermore, at week 10, the blood was collected from the abdominal aorta for blood biochemical tests.

The next assay concerns rat hypertriglyceridemia. As to the kind of experiment: Effect on rat hypertriglyceridemia (Intralipid-induced), serum triglyceride. It counts as in vivo. Conditions: male Wistar rats; for TG (serum triglyceride): 200 mg/2 ml/kg i.p., Intralipid 2 ml/kg i.v. 0.5 hour after dosing, blood 30 min after injection, mean ± S.E., n = 8-9; for triglyceride (TG) lowering effect (in words): 200 mg/kg i.p., versus control. On the procedure: Intralipid (Otsuka Pharmaceutical Co., Ltd.) was used for induction of hypertriglyceridemia in rats.
The treatment groups were intraperitoneally dosed with glutathione (hereinafter referred to as GSH), S-(diethyl α, β-dicarboxyethyl)glutathione (hereinafter, DCE-Et-GS), S-(diethyl α, β-dicarboxyethyl)glutathione isopropyl ester (hereinafter, DCE-Et-GS-iPr) and S-(α, β-dicarbamoylethyl)glutathione (hereinafter, DCE-NH2 -GS), each dissolved in physiological saline. The dose was invariously 200 mg/2 ml/kg. The control group received 2 ml/kg of physiological saline i.p. The normal group was also provided.
Intralipid 2 ml/kg was injected into the tail vein 0.5 hour after administration of the test substance. Thirty minutes after the injection, the blood was collected and the serum triglyceride (TG) was determined.

Assay [2] has as its system rat alcoholic fatty liver. To be noted: male Wistar rats; for TG (liver triglyceride): 1000 mg/5 ml/kg p.o., 38% ethyl alcohol 10 ml/kg p.o. 1 hour later, liver excised 6 hours after alcohol, mean ± S.E., n = 8-9. How it is done: Male Wistar rats, 7 weeks old, were used in fasted state.
The experiment was performed in a control group, drug treatment groups and a normal group, each consisting of 8 to 9 animals.
The treatment groups were orally dosed with GSH and DCE-Et-GS-iPr, each dissolved in distilled water, at the dose level of 1000 mg/5 ml/kg. The control group received 5 ml/kg of distilled water p.o. The normal group was also provided.
One hour after administration of the test substance, 10 ml/kg of 38% ethyl alcohol was orally administered to the animals for induction of fatty liver. The liver was excised 6 hours after administration of ethyl alcohol and the triglyceride (TG) was determined by the acetylacetone method.

Experimental findings from patent US5378692A, “Method of lowering lipids” (Senju Pharmaceutical Co., Ltd., priority 1992, dated 1995) are described below.

The structures appear in SMILES notation.

`N[C@@H](CCC(=O)N[C@@H](CSC(CC(=O)O)C(=O)O)C(=O)NCC(=O)O)C(=O)O` (stereo partly drawn) [DCE-GS, S-(α, β-dicarboxyethyl)glutathione]: in assay [1], the “Total Cholesterol Week 4” value came to 109.8 mg/dL, the “Total Cholesterol Week 8” value turned out to be 118.2 mg/dL and the “Total Cholesterol Week 10” value is 95 mg/dL. Besides, in assay [1] (week 10), the “TG (blood triglycerides)” value came out at 406 mg/dL and the β-lipoproteins was 759 mg/dL.

`NC(=O)CC(SC[C@H](NC(=O)CC[C@H](N)C(=O)O)C(=O)NCC(=O)O)C(N)=O` (stereo partly drawn) [DCE-NH2 -GS, S-(α, β-dicarbamoylethyl)glutathione]: in the assay on rat hypertriglyceridemia, the “TG (serum triglyceride)” value stood at 72.4 ± 6 mg/dL and the “triglyceride (TG) lowering effect (in words)” value is “Significant triglyceride (TG) lowering effects”.

Take `CCOC(=O)CC(SC[C@H](NC(=O)CC[C@H](N)C(=O)O)C(=O)NCC(=O)OC(C)C)C(=O)OCC` (stereo partly drawn) [DCE-Et-GS-iPr, S-(diethyl α, β-dicarboxyethyl)glutathione isopropyl ester]: in assay [1], the “Total Cholesterol Week 4” value stood at 113.9 mg/dL, the “Total Cholesterol Week 8” value was 110.5 mg/dL and the “Total Cholesterol Week 10” value amounted to 120 mg/dL. In addition, in assay [1] (week 10), the “TG (blood triglycerides)” value was 404 mg/dL, the VLDL worked out at 106 mg/dL and the β-lipoproteins was determined as 818 mg/dL. The “TG (liver triglyceride)” value in assay [2] turned out to be 10.7 ± 0.3 mg/g liver. For the same compound, in assay [2] (1000 mg/kg p.o., versus control), the “triglyceride (TG) lowering effect (in words)” value is given as “significant triglyceride (TG) lowering effect”. Moreover, in the assay on rat hypertriglyceridemia, the “TG (serum triglyceride)” value is 66.1 ± 11 mg/dL and the “triglyceride (TG) lowering effect (in words)” value was “Significant triglyceride (TG) lowering effects”.

`N[C@@H](CCC(=O)N[C@@H](CS)C(=O)NCC(=O)O)C(=O)O` [GSH, glutathione, reference compound]: the “TG (liver triglyceride)” value in assay [2] is 13.0 ± 0.4 mg/g liver. For the same compound, in the assay with rat hypertriglyceridemia, the “TG (serum triglyceride)” value turned out to be 150.4 ± 12 mg/dL.
